Results as given in patent US10131670B2, “Bicyclic heteroaryl derivatives as CFTR potentiators” (CYSTIC FIBROSIS FOUNDATION THERAPEUTICS, INC., priority 2016, dated 2018).

How the values were obtained:
F508del V470 CFTR = F508del V470 CFTR (Homo sapiens, UniProt P13569, DEL508-508); assay: FRT Ion Flux Assay of F508del CFTR Potentiation; type: cell-based; conditions: FRT cells expressing F508del V470 CFTR and halide-sensitive YFP, forskolin 20 uM, 30 min
Experimental: FRT Ion Flux Assay of F508del CFTR Potentiation
Fischer rat thyroid (FRT) cell lines stably expressing recombinant F508del V470 CFTR and halide-sensitive yellow fluorescent protein (Pedemonte et al., J. Clin. Invest. 115(9) 2564-71 (2005)) were seeded at 25,000 cells/well in 50 uL/well of culture medium into black-walled, clear bottom tissue-culture-treated 384-well plates (Corning, cat. no. 3712). After one day, the cells were pre-incubated at 27° C./5% CO2 for 16-24 hours. The cells were then washed with dPBS and treated with forskolin (20 uM) and test compound for 30 min by addition of 20 uL of compound dilution buffer (dPBS containing forskolin and test compound). Plates were loaded into FLIPR384 fluorescence imaging plate reader (Molecular Devices). After an initial fluorescence reading, iodide buffer (25 uL) (composition (in mM): 137 NaI, 1.5 K2PO4, 8.1 NaH2PO4, 2.7 KCl, 0.5 MgCl2, 1 CaCl2) was added and a second fluorescence reading was made after approximately 21 seconds. Data treatment involved division of the second fluorescence reading by the initial fluorescence reading, then scaling of the resulting normalized endpoint fluorescence with respect to the responses for DMSO (0%) and a positive control potentiator (100%).

CFTR = CFTR (Homo sapiens, UniProt P13569); assay: Ussing Chamber Electrophysiology Assay of CFTR Potentiation in CF Bronchial Epithelial Cells; type: cell-based; conditions: primary CF hBE cells, short-circuit current, scaled to DMSO (0%) and positive control potentiator (100%)
Excerpt: Ussing Chamber Electrophysiology Assay of CFTR Potentiation in CF Bronchial Epithelial Cells
Primary cystic fibrosis human bronchial epithelial (CF hBE) cells were expanded and cultured according to published methods (Neuberger et al., Ch. 4 of Cystic Fibrosis, Methods in Molecular Biology vol. 741, pp. 39-54 (2011)). Well-differentiated cells (>30 days at air/liquid interface) on Snapwell filters (Corning Costar, cat. no. 3801) were mounted in Ussing chambers (Physiologic Instruments, Inc., San Diego, Calif.). F508del/F508del cultures were assayed at 27° C. and G551D/F508del cells were assayed at 35° C. HEPES buffered physiological saline (composition (in mM): 137 NaCl, 4 KCl, 1 MgCl2, 1.8 CaCl2, 10 HEPES Na) was used in both apical and basolateral chambers. Chambers were bubbled with air to promote mixing and the voltage was clamped to zero. Amiloride (30 uM), forskolin (10 uM), test compound (4 increasing concentrations), and CFTRinh-172 (20 uM) were added sequentially with 20-25 minutes between additions. Short-circuit currents were acquired and analyzed using LabScribe2. Test compound responses were scaled relative to responses for DMSO (0%) and the maximal response of a positive control potentiator (100%).

Chain of F508del V470 CFTR (P13569 with tags, fused parts or gaps DEL508-508): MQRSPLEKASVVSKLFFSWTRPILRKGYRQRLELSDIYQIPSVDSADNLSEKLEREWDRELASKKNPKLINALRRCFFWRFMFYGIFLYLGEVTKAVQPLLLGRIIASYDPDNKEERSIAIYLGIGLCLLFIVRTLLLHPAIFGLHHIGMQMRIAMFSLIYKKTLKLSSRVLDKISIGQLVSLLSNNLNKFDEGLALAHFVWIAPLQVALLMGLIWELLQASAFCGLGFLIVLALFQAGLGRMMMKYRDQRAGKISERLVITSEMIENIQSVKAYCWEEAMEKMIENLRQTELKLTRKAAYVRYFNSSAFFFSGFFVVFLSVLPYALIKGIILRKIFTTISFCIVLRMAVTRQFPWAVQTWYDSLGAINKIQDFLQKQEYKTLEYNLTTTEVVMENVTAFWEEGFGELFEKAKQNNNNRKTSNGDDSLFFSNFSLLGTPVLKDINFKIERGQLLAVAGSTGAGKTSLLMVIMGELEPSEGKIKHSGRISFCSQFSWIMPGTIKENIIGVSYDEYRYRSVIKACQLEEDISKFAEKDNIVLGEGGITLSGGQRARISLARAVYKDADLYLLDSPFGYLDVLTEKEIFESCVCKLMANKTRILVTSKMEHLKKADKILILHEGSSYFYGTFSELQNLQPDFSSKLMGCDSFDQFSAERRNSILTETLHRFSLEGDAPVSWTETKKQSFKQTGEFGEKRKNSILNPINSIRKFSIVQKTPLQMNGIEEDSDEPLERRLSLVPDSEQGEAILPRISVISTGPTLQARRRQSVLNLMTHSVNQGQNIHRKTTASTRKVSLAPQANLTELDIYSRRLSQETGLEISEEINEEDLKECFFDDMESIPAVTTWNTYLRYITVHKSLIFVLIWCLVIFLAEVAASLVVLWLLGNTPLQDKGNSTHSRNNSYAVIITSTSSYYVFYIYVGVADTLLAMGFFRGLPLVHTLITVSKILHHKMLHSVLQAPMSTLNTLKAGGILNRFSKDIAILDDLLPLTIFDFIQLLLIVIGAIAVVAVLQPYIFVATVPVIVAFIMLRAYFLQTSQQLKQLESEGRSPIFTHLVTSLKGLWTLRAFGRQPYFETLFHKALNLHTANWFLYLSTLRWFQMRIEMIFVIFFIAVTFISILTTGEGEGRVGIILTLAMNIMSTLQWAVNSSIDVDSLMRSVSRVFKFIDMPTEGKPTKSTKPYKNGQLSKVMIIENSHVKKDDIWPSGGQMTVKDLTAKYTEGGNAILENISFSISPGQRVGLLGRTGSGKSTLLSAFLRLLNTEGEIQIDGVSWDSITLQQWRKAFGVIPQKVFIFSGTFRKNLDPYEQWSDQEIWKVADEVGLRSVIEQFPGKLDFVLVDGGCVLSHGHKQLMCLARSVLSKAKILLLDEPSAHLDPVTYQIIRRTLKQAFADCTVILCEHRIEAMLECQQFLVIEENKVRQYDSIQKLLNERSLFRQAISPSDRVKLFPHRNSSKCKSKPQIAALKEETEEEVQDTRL

| SMILES | EC50 (F508del V470 CFTR) [nM] | EC50 (CFTR) [nM] |
| --- | --- | --- |
| CC(c1cn(-c2ccccc2F)nn1)c1c(C#N)c(-c2cnc(C(F)(F)F)nc2)c2c(N)ncnn12 (single isomer, unassigned) [Example 1, 4-amino-7-{1-[1-(2-fluorophenyl)-1H-1,2,3-triazol-4-yl]ethyl}-5-[2-(trifluoromethyl)pyrimidin-5-yl]pyrrolo[2,1-f][1,2,4]triazine-6-carbonitrile] | 46.8 | 51.1 |
| CC(c1cn(-c2ccccc2F)nn1)c1c(C#N)c(-c2cnc(C(F)(F)F)nc2)c2c(N)ncnn12 (single isomer, unassigned) [Example 2, 4-amino-7-{1-[1-(2-fluorophenyl)-1H-1,2,3-triazol-4-yl]ethyl}-5-[2-(trifluoromethyl)pyrimidin-5-yl]pyrrolo[2,1-f][1,2,4]triazine-6-carbonitrile] | 9.14 | 11.2 |
| CC(c1cn(-c2ccc(F)cc2F)nn1)c1c(C#N)c(-c2cnc(C(F)(F)F)nc2)c2c(N)ncnn12 (single isomer, unassigned) [Example 3, 4-amino-7-{1-[1-(2,4-difluorophenyl)-1H-1,2,3-triazol-4-yl]ethyl}-5-[2-(trifluoromethyl)pyrimidin-5-yl]pyrrolo[2,1-f][1,2,4]triazine-6-carbonitrile] | 10.6 | 14.6 |
| CCC(c1cn(-c2ccccc2F)nn1)c1c(C#N)c(-c2cnc(C(F)(F)F)nc2)c2c(N)ncnn12 (single isomer, unassigned) [Example 4, 4-amino-7-{1-[1-(2-fluorophenyl)-1H-1,2,3-triazol-4-yl]propyl}-5-[2-(trifluoromethyl)pyrimidin-5-yl]pyrrolo[2,1-f][1,2,4]triazine-6-carbonitrile] | 35.8 | 20.5 |
| CCC(c1cn(-c2ccccc2F)nn1)c1c(C#N)c(-c2cnc(C(F)(F)F)nc2)c2c(N)ncnn12 (single isomer, unassigned) [Example 5, 4-amino-7-{1-[1-(2-fluorophenyl)-1H-1,2,3-triazol-4-yl]propyl}-5-[2-(trifluoromethyl)pyrimidin-5-yl]pyrrolo[2,1-f][1,2,4]triazine-6-carbonitrile] | 2.13 | 3.02 |
| CCC(c1cn(-c2ccc(F)cc2F)nn1)c1c(C#N)c(-c2cnc(C(F)(F)F)nc2)c2c(N)ncnn12 (single isomer, unassigned) [Example 6, 4-amino-7-{1-[1-(2,4-difluorophenyl)-1H-1,2,3-triazol-4-yl]propyl}-5-[2-(trifluoromethyl)pyrimidin-5-yl]pyrrolo[2,1-f][1,2,4]triazine-6-carbonitrile] | 5.05 | 5.48 |
| CCC(c1cn(-c2ccc(F)cc2F)nn1)c1c(C#N)c(-c2cnc(C(F)(F)F)nc2)c2c(N)ncnn12 (single isomer, unassigned) [Example 7, 4-amino-7-{1-[1-(2,4-difluorophenyl)-1H-1,2,3-triazol-4-yl]propyl}-5-[2-(trifluoromethyl)pyrimidin-5-yl]pyrrolo[2,1-f][1,2,4]triazine-6-carbonitrile] | 45.2 | 33.5 |
| CCC(c1cn(-c2cc(F)ccc2F)nn1)c1c(C#N)c(-c2cnc(C(F)(F)F)nc2)c2c(N)ncnn12 (single isomer, unassigned) [Example 8, 4-amino-7-{1-[1-(2,5-difluorophenyl)-1H-1,2,3-triazol-4-yl]propyl}-5-[2-(trifluoromethyl)pyrimidin-5-yl]pyrrolo[2,1-f][1,2,4]triazine-6-carbonitrile] | 17.2 | 13 |
| CCC(c1cn(-c2ccc(F)c(F)c2)nn1)c1c(C#N)c(-c2cnc(C(F)(F)F)nc2)c2c(N)ncnn12 (single isomer, unassigned) [Example 9, 4-amino-7-{1-[1-(3,4-difluorophenyl)-1H-1,2,3-triazol-4-yl]propyl}-5-[2-(trifluoromethyl)pyrimidin-5-yl]pyrrolo[2,1-f][1,2,4]triazine-6-carbonitrile] | 41.2 | 28.4 |
| CCC(c1cnn(C(C)C)c1)c1c(C#N)c(-c2cnc(C(F)(F)F)nc2)c2c(N)ncnn12 (single isomer, unassigned) [Example 10, 4-amino-7-{1-[1-(propan-2-yl)-1H-pyrazol-4-yl]propyl}-5-[2-(trifluoromethyl)pyrimidin-5-yl]pyrrolo[2,1-f][1,2,4]triazine-6-carbonitrile] | 95.9 | 48 |
| CCC(c1cnn(C(C)C)c1)c1c(C#N)c(-c2cnc(C(F)(F)F)nc2)c2c(N)ncnn12 (single isomer, unassigned) [Example 11, 4-amino-7-{1-[1-(propan-2-yl)-1H-pyrazol-4-yl]propyl}-5-[2-(trifluoromethyl)pyrimidin-5-yl]pyrrolo[2,1-f][1,2,4]triazine-6-carbonitrile] | 4.17 | 6.96 |
| CC(c1cnn(-c2ccccc2F)c1)c1c(C#N)c(-c2cnc(C(F)(F)F)nc2)c2c(N)ncnn12 (single isomer, unassigned) [Example 12, 4-amino-7-{1-[1-(2-fluorophenyl)-1H-pyrazol-4-yl]ethyl}-5-[2-(trifluoromethyl)pyrimidin-5-yl]pyrrolo[2,1-f][1,2,4]triazine-6-carbonitrile] | 12.5 | 4 |
| CC(c1cnn(-c2ccccc2F)c1)c1c(C#N)c(-c2cnc(C(F)(F)F)nc2)c2c(N)ncnn12 (single isomer, unassigned) [Example 13, 4-amino-7-{1-[1-(2-fluorophenyl)-1H-pyrazol-4-yl]ethyl}-5-[2-(trifluoromethyl)pyrimidin-5-yl]pyrrolo[2,1-f][1,2,4]triazine-6-carbonitrile] | 0.62 | 0.42 |
| CC(O)(c1cn(-c2ccccc2F)nn1)c1cc(-c2cnc(C(F)(F)F)nc2)c2c(N)ncnn12 (single isomer, unassigned) [Example 68, 1-{4-amino-5-[2-(trifluoromethyl)pyrimidin-5-yl]pyrrolo[2,1-f][1,2,4]triazin-7-yl}-1-[1-(2-fluorophenyl)-1H-1,2,3-triazol-4-yl]ethanol] | 2310 |  |
| CC(c1cnn(-c2ccccc2F)c1)c1c(C#N)c(-c2cnc(C(F)F)nc2)c2c(N)ncnn12 (single isomer, unassigned) [Example 96, 4-amino-5-[2-(difluoromethyl)pyrimidin-5-yl]-7-{1-[1-(2-fluorophenyl)-1H-pyrazol-4-yl]ethyl}pyrrolo[2,1-f][1,2,4]triazine-6-carbonitrile] |  | 0.4 |
| CC(c1cnn(-c2ccccc2F)c1)c1c(C#N)c(-c2cnc(C(F)F)nc2)c2c(N)ncnn12 (single isomer, unassigned) [Example 97, 4-amino-5-[2-(difluoromethyl)pyrimidin-5-yl]-7-{1-[1-(2-fluorophenyl)-1H-pyrazol-4-yl]ethyl}pyrrolo[2,1-f][1,2,4]triazine-6-carbonitrile] |  | 3.87 |
| CCC(c1cn(-c2ccccc2F)nn1)c1c(C#N)c(-c2cnc(C(F)(F)F)nc2)c2c(N)ncnn12 (stereo not drawn) [Example 25, 4-amino-7-{1-[1-(2-fluorophenyl)-1H-1,2,3-triazol-4-yl]propyl}-5-[2-(trifluoromethyl)pyrimidin-5-yl]pyrrolo[2,1-f][1,2,4]triazine-6-carbonitrile] |  | 7.86 |
